Test results: patent publication US12503452B2 (Curza Global, LLC, priority 2019, dated 2025)
Structures can show the parent of a compound that is named as a salt. Where two headings read alike, the source gives them in different places.

How the values were obtained:
[1] = target: Rabbit Reticulocyte Lysate (eukaryotic protein synthesis); test: Rabbit reticulocyte lysate luciferase assay (inhibition of eukaryotic protein synthesis); assay type: biochemical; conditions: read-out: Rabbit reticulocyte IC50 (μM/% inhib.)
Method: Inhibition of eukaryotic protein synthesis was determined using the Rabbit Reticulocyte Lysate System, Nuclease-Treated from Promega (catalog #L-4960) with slight modifications to the manufacturer's protocol. Compounds were serial diluted in 0.5 mL microcentrifuge tubes by mixing and transferring 50 μL from the highest concentration to 50 μL of water, mixing and transferring 50 μL of this 2-fold dilution to 50 μL of water. This mixing and transferring was repeated so that there are a total of 8 tubes with serial dilutions of compound at 10× the desired screening concentration that are ultimately diluted to 1× by the addition of rabbit reticulocyte luciferase synthesis mixture. Serial dilutions of compounds were added ([…]) to wells in a black round bottom 96-well plate. Water (2.5 μL) was used as a “no inhibitor” control in 4 wells/plate. No RNA control reaction mixture ([…]; see below) was used as a control in 4 wells/plate for background luminescence. Rabbit reticulocyte luciferase synthesis mixture (22.5 μL; see below) was added to wells with compounds or water mixture and incubated at 30° C. for 90 minutes. Luciferase assay reagent (25 μL) was added with luminescence measured using a BioTek Synergy HTX plate reader. % Inhibition was determined relative to no inhibitor controls.
Rabbit reticulocyte luciferase synthesis mixture:
• 1,000 μL rabbit reticulocyte lysate • 5.7 μL Luciferase Control RNA (1 μg/μL) • 26 μL complete amino acid mixture • 395 μL water No RNA Control • 70 μL rabbit reticulocyte lysate • 2 μL complete amino acid mixture • 28 μL water Minimum Inhibitory Concentration (MIC)

[2] = system: E. coli S30 extract (bacterial protein synthesis); test: E. coli S30 extract coupled transcription-translation luciferase assay (inhibition of bacterial protein synthesis); assay type: biochemical; conditions: read-out: S30 IC50 (μM/% inhib.)
Method: E. coli S30 extract: Inhibition of bacterial protein synthesis was determined using the E. coli S30 Extract System for Circular DNA (Promega catalog #L-2010) and Luciferase Assay Reagent (Promega catalog #E1500) with slight modifications to a published protocol. Fyfe, C., Sutcliffe, J. A. and Grossman, T. H. (2012) “Development and characterization of a Pseudomonas aeruginosa in vitro coupled transcription-translation assay system for evaluation of translation inhibitors” J. Microbiol. Methods 90(3), 256-261.
Compounds were serial diluted in 0.5 mL microcentrifuge tubes by mixing and transferring 50 μL from the highest concentration to 50 μL of water, mixing and transferring 50 μL of this 2-fold dilution to 50 μL of water. This mixing and transferring was repeated so that there are a total of 8 tubes with serial dilutions of compound at 10× the desired screening concentration that are ultimately diluted to 1× by the addition of S30 luciferase synthesis mixture. Serial dilutions of compounds were added (2 μL) to wells in a black round bottom 96-well plate. Water (2 μL) was used as a “no inhibitor” control in 4 wells/plate. No DNA control reaction mixture (20 μL; see below) was used as a control in 4 wells/plate for background luminescence. S30 luciferase synthesis mixture (18 μL; see below) was added to wells with compounds or water mixture and incubated at 37° C. for 1 hour. Reactions were stopped by transferring to 4° C. refrigerator for 5 minutes then 25 μL of luciferase activity mix was added. Luminescence was measured using a BioTek Synergy HTX plate reader. % Inhibition was determined relative to no inhibitor controls.
S30 luciferase synthesis mixture:
• 445 μL S30 extract, circular • 712 μL S30 Premix without amino acids • 4.45 μL pBESTluc™ DNA (1 μg/μL) • 78 μL complete amino acid mixture • 267 μL water No DNA control: • 20 μL S30 extract, circular • 32 μL S30 Premix without amino acids • 7 μL complete amino acid mixture • 21 μL water Rabbit Reticulocyte lysate

[3] = class by IC50 or % inhibition @ 1 μM

Row | Structure (SMILES) | IC50 [1, 3] [µM] | IC50 [2, 3] [µM] | IC50 ([1]; % inhibition @ 1 μM) [µM] | IC50 ([2]; % inhibition @ 1 μM) [µM]
1 | CC(C)(N)C(=O)N1CCN(C(=O)Nc2ccn(-c3ccc(CCN4CC[C@H](CN)C4)cc3)c(=O)n2)CC1 [Compound 17] | > 1 | < 0.5 |  | 
2 | CC(C)(N)C(=O)N1CCN(C(=O)Nc2ccn(-c3cccc(CCN4CCCC(CN)C4)c3)c(=O)n2)CC1 (stereo not drawn) [Compound 3] |  | > 1 |  | 
3 | CC(C)(N)C(=O)N1CCN(C(=O)Nc2ccn(-c3ccc(CN4CC(CCN)(C(=O)O)C4)cc3)c(=O)n2)CC1 [Compound 369, hydrochloride salt] |  |  | > 1 | > 1
4 | NCC1CN(C(=O)Nc2ccn(-c3ccc(CN4CCC(N)CC4)cc3)c(=O)n2)CCO1 (stereo not drawn) [Compound 51] | > 1 | > 1 |  | 
5 | CC(C)[C@H]1CN(C(=O)C(C)(C)N)CCN1C(=O)Nc1ccn(-c2ccc(CN3CCC(N)CC3)cc2)c(=O)n1 [Compound 77] | > 1 | > 1 |  | 
6 | NC[C@@H]1CCN(C(=O)Nc2ccn(-c3ccc(CN4CCC(N)CC4)cc3)c(=O)n2)C1 [Compound 53] | > 1 | > 1 |  | 
7 | CC(C)(N)C(=O)N1CCN(C(=O)Nc2ccn(-c3cccc(CCN4CC[C@H](N)C4)c3)c(=O)n2)CC1 [Compound 6] | > 1 | > 1 |  | 
8 | C[C@H](N)C(=O)NC1CCN(Cc2ccc(-n3ccc(NC(=O)N4CCN(C(=O)[C@@](C)(N)CO)CC4)nc3=O)cc2)CC1 [Compound 100] | > 1 | 0.5 to 1 |  | 
9 | CC(C)(N)C(=O)N1CCN(C(=O)Nc2ccn(-c3ccc(CN4CCOC(CN)C4)cc3)c(=O)n2)CC1 (stereo not drawn) [Compound 135] | > 1 | > 1 |  | 
10 | C[C@@H]1CN(C(=O)C(C)(C)N)[C@H](C)CN1C(=O)Nc1ccn(-c2ccc(CN3CCC(N)CC3)cc2)c(=O)n1 [Compound 88] | > 1 | > 1 |  | 
11 | CC(C)(N)C(=O)N1CCN(C(=O)Nc2ccn(-c3ccc(CN4CCC(N)CC4)cc3)c(=O)n2)C[C@H]1C(=O)O [Compound 81] | > 1 | > 1 |  | 
12 | NCC1CCCN(C(=O)Nc2ccn(-c3ccc(CN4CCC(N)CC4)cc3)c(=O)n2)C1 (stereo not drawn) [Compound 46] | > 1 | > 1 |  | 
13 | CC(C)(N)C(=O)N1CCN(C(=O)Nc2ccn(-c3cccc(CN4CCC(NC(=N)N)CC4)c3)c(=O)n2)CC1 [Compound 102] | > 1 | > 1 |  | 
14 | CCC1CN(C(=O)C(C)(C)N)CCN1C(=O)Nc1ccn(-c2ccc(CN3CCC(N)CC3)cc2)c(=O)n1 (stereo not drawn) [Compound 55] | > 1 | 0.5 to 1 |  | 
15 | CC(C)(N)C(=O)N1CCN(C(=O)Nc2ccn(-c3ccc(CCN4CC[C@@H](CN)C4)cc3)c(=O)n2)CC1 [Compound 18] | > 1 | < 0.5 |  | 
16 | CC(C)(N)C(=O)N1CCN(C(=O)Nc2ccn(-c3ccc(CCN4CCCC(CN)C4)cc3)c(=O)n2)CC1 (stereo not drawn) [Compound 10] | > 1 | < 0.5 |  | 
17 | C[C@](N)(CO)C(=O)N1CCN(C(=O)Nc2ccn(-c3ccc(CCN4CC[C@@H](N)C4)cc3)c(=O)n2)CC1 [Compound 11] | > 1 | 0.5 to 1 |  | 
18 | CCC1CN(C(=O)Nc2ccn(-c3ccc(CN4CCC(N)CC4)cc3)c(=O)n2)CCN1C(=O)C(C)(C)N (stereo not drawn) [Compound 78] | > 1 | > 1 |  | 
19 | CC(C)(N)CC(=O)N1CCN(C(=O)Nc2ccn(-c3cccc(CN4CCC(N)CC4)c3)c(=O)n2)CC1 [Compound 362] |  |  | > 1 | > 1
20 | Cc1cc(-n2ccc(NC(=O)N3CCN(C(=O)CC(C)(C)N)CC3)nc2=O)ccc1CN1CCC(N)CC1 [Compound 94] | > 1 | > 1 |  | 
21 | C[C@H](N)C1CCN(Cc2ccc(-n3ccc(NC(=O)N4CCN(C(=O)C(C)(C)N)[C@H](C)C4)nc3=O)cc2)CC1 [Compound 206] | > 1 | > 1 |  | 

Row | Structure (SMILES) | IC50 [1, 3] [µM] | IC50 [2, 3] [µM] | IC50 ([1]; % inhibition @ 1 μM) [µM] | IC50 ([2]; % inhibition @ 1 μM) [µM]
22 | CC[C@H]1CN(C(=O)Nc2ccn(-c3ccc(CN4CCC(N)CC4)cc3)c(=O)n2)CCN1C(=O)C(C)(C)N [Compound 66] | > 1 | > 1 |  | 
23 | CC[C@H]1CN(C(=O)C(C)(C)N)CCN1C(=O)Nc1ccn(-c2ccc(CN3CCC(N)CC3)cc2)c(=O)n1 [Compound 83] | > 1 | > 1 |  | 
24 | CC1CN(Cc2ccc(-n3ccc(NC(=O)N4CCN(C(=O)[C@@](C)(N)CO)CC4)nc3=O)cc2)CCC1N (stereo in doubt) [Compound 224] | > 1 | < 0.5 |  | 
25 | CC(C)(N)C(=O)N1CCCC2C1CCCN2C(=O)Nc1ccn(-c2ccc(CN3CCC(N)CC3)cc2)c(=O)n1 (stereo not drawn) [Compound 86] | > 1 | > 1 |  | 
26 | CC[C@@H]1CN(C(=O)C(C)(C)N)CCN1C(=O)Nc1ccn(-c2ccc(CN3CCC(N)CC3)cc2)c(=O)n1 [Compound 84] | > 1 | > 1 |  | 
27 | CN(C)C1CCCN(CCc2ccc(-n3ccc(NC(=O)N4CCN(C(=O)C(C)(C)N)CC4)nc3=O)cc2)CC1 (stereo not drawn) [Compound 36] | > 1 | > 1 |  | 
28 | NC1CCN(Cc2ccc(-n3ccc(NC(=O)N4CCC[C@@H](N)C4)nc3=O)cc2)CC1 [Compound 47] | > 1 | > 1 |  | 
29 | CNC1CCN(CCc2cccc(-n3ccc(NC(=O)N4CCN(C(=O)C(C)(C)N)CC4)nc3=O)c2)CC1 [Compound 4] |  | > 1 |  | 
30 | CC(C)(N)CC(=O)N1CCN(C(=O)Nc2ccn(-c3ccc(CCN4CCC(N)CC4)cc3)c(=O)n2)CC1 [Compound 197] |  | > 1 |  | 
31 | CC(C)(N)C(=O)N1CCN(C(=O)Nc2ccn(-c3ccc(CC[N+]4(C)CCC(N)CC4)cc3)c(=O)n2)CC1 (stereo not drawn) [Compound 196] | > 1 | < 0.5 |  | 
32 | C[C@@H]1CN(C(=O)C(C)(C)N)[C@@H](C)CN1C(=O)Nc1ccn(-c2ccc(CN3CCC(N)CC3)cc2)c(=O)n1 [Compound 60] | > 1 |  |  | 
33 | CC(C)(N)C(=O)N1CCN(C(=O)Nc2ccn(-c3ccc(CN4CCC(NC(=N)N)CC4)cc3)c(=O)n2)CC1 [Compound 105] | < 0.5 | < 0.5 |  | 
34 | CC(C)(N)C(=O)N1CCN(Cc2ccc(-n3ccc(NC(=O)N4CCN(C(=O)C(C)(C)N)CC4)nc3=O)cc2)CC1 [Compound 225] | > 1 | > 1 |  | 
35 | CC1(N)CCN(Cc2ccc(-n3ccc(NC(=O)N4CCN(C(=O)[C@@](C)(N)CO)CC4)nc3=O)cc2Cl)CC1 [Compound 360] |  |  | > 1 | < 0.5
36 | C[C@H](N)C1CCN(Cc2ccc(-n3ccc(NC(=O)N4CCN(C(=O)[C@@](C)(N)CO)C[C@H]4C)nc3=O)cc2)CC1 [Compound 207] | > 1 | > 1 |  | 
37 | CC(C)(N)C(=O)N1CCN(C(=O)Nc2ccn(-c3ccc(CN4CCC(F)(F)CC4)cc3)c(=O)n2)CC1 [Compound 383] |  |  | > 1 | > 1
38 | CC(C)(N)C(=O)N1CCN(C(=O)Nc2ccn(-c3ccc(CCN4CC[C@H](N)C4)cc3)c(=O)n2)CC1 [Compound 7] |  | > 1 |  | 
39 | CC(C)(N)C(=O)N1CCN(C(=O)Nc2ccn(-c3ccc(CCN4CCC[C@H](N)C4)cc3)c(=O)n2)CC1 [Compound 9] |  | > 1 |  | 
40 | CC(C)(N)C(=O)N1CCN(C(=O)Nc2ccn(-c3ccc(CN4CCC(N)CC4)cc3)c(=O)n2)CC1c1ccccc1 (stereo not drawn) [Compound 75] | > 1 |  |  | 
41 | CC(C)(N)C(=O)N1CCN(C(=O)Nc2ccn(-c3ccc(CN4CCC(N)CC4)cc3)c(=O)n2)CC1(C)C [Compound 73] | > 1 |  |  | 
42 | C[C@@H]1CN(C(=O)C(C)(C)N)C[C@H](C)N1C(=O)Nc1ccn(-c2ccc(CN3CCC(N)CC3)cc2)c(=O)n1 [Compound 76] | > 1 |  |  | 
